Results on 1 compound are retold here after ChEMBL document CHEMBL5042544, “Discovery of a Potent and Selective ATAD2 Bromodomain Inhibitor with Antiproliferative Activity in Breast Cancer Models” (J Med Chem, 2022).

Activity calls are given as the source filed them. The rule behind the calls is not given here.

As a reminder, the IC50 is the midpoint of a concentration-inhibition curve. The Kd is the equilibrium constant for the complex coming apart.

Assay [1] deals with Bromodomain-containing protein 4 (Homo sapiens, UniProt O60885). As to the kind of experiment: Displacement of Alexafluor 647-JQ1 from GST-BRD4 BD1 BD2 (44 to 460 residues) (unknown origin) incubated for 60 mins by fluorescence polarization assay. Background: In fluorescence polarisation assays a small probe gives low polarisation when free and higher when bound to something large.

Assay [2] has as its target T1, ATPase family AAA domain-containing protein 2 (Homo sapiens, UniProt Q6PL18).
T1 sequence (Q6PL18 whole entry): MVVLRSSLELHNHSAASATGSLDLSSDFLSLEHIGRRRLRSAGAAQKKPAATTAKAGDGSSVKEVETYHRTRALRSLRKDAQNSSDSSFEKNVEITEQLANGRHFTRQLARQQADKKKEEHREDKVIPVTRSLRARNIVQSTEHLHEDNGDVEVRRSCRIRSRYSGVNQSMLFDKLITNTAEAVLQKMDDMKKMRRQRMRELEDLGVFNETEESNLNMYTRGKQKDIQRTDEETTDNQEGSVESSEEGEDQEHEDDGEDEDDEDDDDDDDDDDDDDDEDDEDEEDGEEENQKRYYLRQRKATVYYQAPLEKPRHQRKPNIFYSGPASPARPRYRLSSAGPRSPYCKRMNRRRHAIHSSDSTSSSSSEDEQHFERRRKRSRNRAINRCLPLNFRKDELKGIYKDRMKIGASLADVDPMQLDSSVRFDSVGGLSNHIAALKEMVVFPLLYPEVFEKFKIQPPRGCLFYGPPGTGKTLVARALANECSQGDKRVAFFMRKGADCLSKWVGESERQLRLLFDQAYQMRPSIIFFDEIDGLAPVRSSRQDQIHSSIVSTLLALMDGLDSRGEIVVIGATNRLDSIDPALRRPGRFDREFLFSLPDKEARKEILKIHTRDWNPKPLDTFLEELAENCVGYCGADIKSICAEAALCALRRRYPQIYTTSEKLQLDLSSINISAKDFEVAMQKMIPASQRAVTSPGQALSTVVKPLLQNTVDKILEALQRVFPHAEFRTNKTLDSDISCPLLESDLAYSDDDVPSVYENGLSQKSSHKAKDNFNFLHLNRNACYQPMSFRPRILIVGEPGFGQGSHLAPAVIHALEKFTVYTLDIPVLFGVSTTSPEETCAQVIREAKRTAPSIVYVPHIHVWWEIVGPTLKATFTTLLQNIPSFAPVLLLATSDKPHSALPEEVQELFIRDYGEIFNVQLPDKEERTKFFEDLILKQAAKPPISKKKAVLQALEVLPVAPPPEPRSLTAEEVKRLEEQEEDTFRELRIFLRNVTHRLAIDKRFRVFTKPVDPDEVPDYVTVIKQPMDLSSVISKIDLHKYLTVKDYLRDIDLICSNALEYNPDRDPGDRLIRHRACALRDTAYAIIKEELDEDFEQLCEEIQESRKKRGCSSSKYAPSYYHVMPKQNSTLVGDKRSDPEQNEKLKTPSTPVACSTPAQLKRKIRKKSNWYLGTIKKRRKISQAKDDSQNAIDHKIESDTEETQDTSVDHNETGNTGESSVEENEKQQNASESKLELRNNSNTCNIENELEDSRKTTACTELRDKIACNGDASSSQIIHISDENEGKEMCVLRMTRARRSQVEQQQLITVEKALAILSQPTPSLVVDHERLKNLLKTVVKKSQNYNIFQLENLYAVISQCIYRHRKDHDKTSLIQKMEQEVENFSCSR
Description: Displacement of Halo-tagged Histone H3.3 from Nanoluc-ATAD2A BD (962 to 1119 residues) (unknown origin) transfected in human HCT116 cells incubated for 18 hrs by NanoBRET assay. It is filed as cell-based, HCT-116. On the technique in general: BRET reads energy transfer from a luciferase to a nearby fluorophore.

The target of assay [3] is ATPase family AAA domain-containing protein 2B (Homo sapiens) (UniProt Q9ULI0). Description: Binding affinity to human ATAD2B bromodomain assessed as residual activity at 300 nM by BROMOscan method relative to control.
Assay [4] deals with Bromodomain-containing protein 1 (Homo sapiens) (UniProt O95696). As to the kind of experiment: Binding affinity to human BRD1 bromodomain assessed as residual activity at 300 nM by BROMOscan method relative to control.
Assay [5] addresses T2, Bromodomain-containing protein 2 (Homo sapiens, UniProt P25440). Description: Binding affinity to human BRD2 bromodomain 1 assessed as residual activity at 300 nM by BROMOscan method relative to control.
Target sequence in this assay (P25440 whole entry, looked up): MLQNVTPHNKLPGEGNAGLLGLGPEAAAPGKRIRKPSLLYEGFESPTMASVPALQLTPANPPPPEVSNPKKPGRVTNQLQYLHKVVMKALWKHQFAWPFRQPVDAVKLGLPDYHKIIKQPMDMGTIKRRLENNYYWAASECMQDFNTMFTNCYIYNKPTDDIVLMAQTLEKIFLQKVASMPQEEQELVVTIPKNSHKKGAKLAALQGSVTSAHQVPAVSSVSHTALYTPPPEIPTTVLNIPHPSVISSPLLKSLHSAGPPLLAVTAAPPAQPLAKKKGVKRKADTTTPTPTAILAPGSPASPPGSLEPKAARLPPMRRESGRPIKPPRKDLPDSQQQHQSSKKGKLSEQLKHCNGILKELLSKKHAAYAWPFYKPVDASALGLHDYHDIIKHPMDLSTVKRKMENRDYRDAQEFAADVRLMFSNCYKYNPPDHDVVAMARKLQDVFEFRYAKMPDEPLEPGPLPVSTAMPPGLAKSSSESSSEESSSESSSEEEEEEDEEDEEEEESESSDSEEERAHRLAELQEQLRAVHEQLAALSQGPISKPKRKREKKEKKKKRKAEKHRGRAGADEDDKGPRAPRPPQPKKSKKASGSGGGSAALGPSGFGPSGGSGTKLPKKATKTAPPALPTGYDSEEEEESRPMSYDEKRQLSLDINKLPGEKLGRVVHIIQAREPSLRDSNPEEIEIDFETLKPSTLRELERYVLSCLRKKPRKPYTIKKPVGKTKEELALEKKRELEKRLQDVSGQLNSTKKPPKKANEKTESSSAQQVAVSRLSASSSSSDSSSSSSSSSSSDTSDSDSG
The target of assay [6] is T2, Bromodomain-containing protein 2. As to the kind of experiment: Binding affinity to human BRD2 bromodomain 2 assessed as residual activity at 300 nM by BROMOscan method relative to control.
Target sequence in this assay (P25440 whole entry, looked up): as above
For assay [7], the target named is Bromodomain-containing protein 9 (Homo sapiens) (UniProt Q9H8M2). Description: Binding affinity to human BRD9 bromodomain assessed as residual activity at 300 nM by BROMOscan method relative to control.
The target of assay [8] is T3, Bromodomain testis-specific protein (Homo sapiens, UniProt Q58F21). Description: Binding affinity to human BRDT bromodomain 1 assessed as residual activity at 300 nM by BROMOscan method relative to control.
Assay [9] addresses T3, Bromodomain testis-specific protein. Description: Binding affinity to human BRDT bromodomain 2 assessed as residual activity at 300 nM by BROMOscan method relative to control.
Assay [10] concerns the target Histone acetyltransferase p300 (Homo sapiens, UniProt Q09472). Description: Binding affinity to human EP300 bromodomain assessed as residual activity at 300 nM by BROMOscan method relative to control.
Assay [11] addresses T4, Protein polybromo-1 (Homo sapiens, UniProt Q86U86). As to the kind of experiment: Binding affinity to human PBRM1 bromodomain 2 assessed as residual activity at 300 nM by BROMOscan method relative to control.
Assay [12] has as its target T4, Protein polybromo-1. As to the kind of experiment: Binding affinity to human PBRM1 bromodomain 5 assessed as residual activity at 300 nM by BROMOscan method relative to control.
In assay [13] the target is T5, Transcription initiation factor TFIID subunit 1 (Homo sapiens, UniProt P21675). As to the kind of experiment: Binding affinity to human TAF1 bromodomain 2 assessed as residual activity at 300 nM by BROMOscan method relative to control.
The target of assay [14] is Transcription initiation factor TFIID subunit 1-like (Homo sapiens) (UniProt Q8IZX4). Description: Binding affinity to human TAF1L bromodomain 2 assessed as residual activity at 300 nM by BROMOscan method relative to control.
Assay [15] has as its target E3 ubiquitin-protein ligase TRIM33 (Homo sapiens) (UniProt Q9UPN9). As to the kind of experiment: Binding affinity to human TRIM33 bromodomain assessed as residual activity at 300 nM by BROMOscan method relative to control.
For assay [16], the target named is ATPase family AAA domain-containing protein 2B (Homo sapiens, UniProt Q9ULI0). As to the kind of experiment: Binding affinity to human ATAD2B bromodomain assessed as dissociation constant by BROMOscan method.
The target of assay [17] is T2, Bromodomain-containing protein 2. Description: Binding affinity to human BRD2 bromodomain 2 assessed as dissociation constant by BROMOscan method.
Assay [18] deals with Nucleosome-remodeling factor subunit BPTF (Homo sapiens, UniProt Q12830). Description: Binding affinity to human FALZ bromodomain by BROMOscan method.
Assay [19] concerns the target T5, Transcription initiation factor TFIID subunit 1. Description: Binding affinity to human TAF1 bromodomain 2 assessed as dissociation constant by BROMOscan method.
The subject of the next assay is SK-BR-3. Description: Antiproliferative activity against human SK-BR-3 cells expressing BRD2 assessed as inhibition of colony formation at 0.01 to 10 uM measured after 14 to 21 days by alamarBlue based colony formation assay. It is filed as functional, cell-based. Conditions: dose 0.01-10 µM, time 14-21 day. (In general: The colour change of resazurin is a common sign of viable cells or microbes.)

T5 sequence (P21675 whole entry): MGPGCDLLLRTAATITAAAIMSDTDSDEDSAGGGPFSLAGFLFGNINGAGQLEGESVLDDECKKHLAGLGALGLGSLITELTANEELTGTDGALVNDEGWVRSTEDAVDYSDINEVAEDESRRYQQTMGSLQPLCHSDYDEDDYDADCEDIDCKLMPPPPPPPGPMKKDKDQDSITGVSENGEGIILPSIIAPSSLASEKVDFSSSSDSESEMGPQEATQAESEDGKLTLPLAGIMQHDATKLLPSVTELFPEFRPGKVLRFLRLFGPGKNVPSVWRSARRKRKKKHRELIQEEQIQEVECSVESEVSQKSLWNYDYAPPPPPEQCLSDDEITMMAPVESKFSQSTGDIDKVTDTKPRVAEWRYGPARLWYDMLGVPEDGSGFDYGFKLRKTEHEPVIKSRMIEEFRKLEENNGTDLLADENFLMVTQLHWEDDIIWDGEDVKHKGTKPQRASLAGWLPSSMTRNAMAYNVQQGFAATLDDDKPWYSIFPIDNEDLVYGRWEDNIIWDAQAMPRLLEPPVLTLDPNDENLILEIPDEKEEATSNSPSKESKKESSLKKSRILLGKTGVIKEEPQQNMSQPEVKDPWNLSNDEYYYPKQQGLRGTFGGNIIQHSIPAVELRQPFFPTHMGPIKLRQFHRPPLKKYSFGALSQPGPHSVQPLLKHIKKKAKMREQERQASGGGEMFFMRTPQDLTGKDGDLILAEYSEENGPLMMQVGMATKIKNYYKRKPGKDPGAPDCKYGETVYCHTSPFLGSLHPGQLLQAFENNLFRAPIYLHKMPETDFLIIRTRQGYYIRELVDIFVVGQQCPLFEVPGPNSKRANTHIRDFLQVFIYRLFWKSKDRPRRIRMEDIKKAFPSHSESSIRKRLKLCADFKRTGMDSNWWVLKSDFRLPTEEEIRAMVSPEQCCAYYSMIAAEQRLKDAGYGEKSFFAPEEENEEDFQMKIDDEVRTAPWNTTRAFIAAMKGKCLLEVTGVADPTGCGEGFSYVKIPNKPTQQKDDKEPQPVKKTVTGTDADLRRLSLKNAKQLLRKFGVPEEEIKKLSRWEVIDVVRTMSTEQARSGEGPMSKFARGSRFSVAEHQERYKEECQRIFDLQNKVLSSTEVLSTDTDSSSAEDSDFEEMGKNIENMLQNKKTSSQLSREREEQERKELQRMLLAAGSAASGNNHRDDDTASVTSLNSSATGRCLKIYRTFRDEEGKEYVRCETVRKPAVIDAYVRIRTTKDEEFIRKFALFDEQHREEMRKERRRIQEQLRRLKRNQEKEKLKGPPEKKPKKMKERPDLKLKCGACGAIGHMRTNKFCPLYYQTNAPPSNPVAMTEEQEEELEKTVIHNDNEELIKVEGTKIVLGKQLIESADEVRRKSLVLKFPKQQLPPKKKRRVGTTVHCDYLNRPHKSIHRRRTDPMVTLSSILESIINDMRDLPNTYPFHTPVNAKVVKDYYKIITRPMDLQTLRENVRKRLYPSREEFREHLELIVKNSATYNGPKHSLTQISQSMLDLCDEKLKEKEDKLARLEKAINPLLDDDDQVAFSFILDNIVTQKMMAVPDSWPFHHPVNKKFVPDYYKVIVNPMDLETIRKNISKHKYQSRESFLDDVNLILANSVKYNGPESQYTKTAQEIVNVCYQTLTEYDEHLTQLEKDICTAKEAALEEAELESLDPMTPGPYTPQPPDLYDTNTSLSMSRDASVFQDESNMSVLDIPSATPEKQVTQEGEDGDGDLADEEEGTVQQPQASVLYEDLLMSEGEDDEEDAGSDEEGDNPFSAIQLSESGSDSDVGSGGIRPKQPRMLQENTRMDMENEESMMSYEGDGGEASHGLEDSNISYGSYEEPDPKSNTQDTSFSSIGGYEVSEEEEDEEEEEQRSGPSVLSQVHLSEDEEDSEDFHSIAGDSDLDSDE
T4 sequence (Q86U86 whole entry): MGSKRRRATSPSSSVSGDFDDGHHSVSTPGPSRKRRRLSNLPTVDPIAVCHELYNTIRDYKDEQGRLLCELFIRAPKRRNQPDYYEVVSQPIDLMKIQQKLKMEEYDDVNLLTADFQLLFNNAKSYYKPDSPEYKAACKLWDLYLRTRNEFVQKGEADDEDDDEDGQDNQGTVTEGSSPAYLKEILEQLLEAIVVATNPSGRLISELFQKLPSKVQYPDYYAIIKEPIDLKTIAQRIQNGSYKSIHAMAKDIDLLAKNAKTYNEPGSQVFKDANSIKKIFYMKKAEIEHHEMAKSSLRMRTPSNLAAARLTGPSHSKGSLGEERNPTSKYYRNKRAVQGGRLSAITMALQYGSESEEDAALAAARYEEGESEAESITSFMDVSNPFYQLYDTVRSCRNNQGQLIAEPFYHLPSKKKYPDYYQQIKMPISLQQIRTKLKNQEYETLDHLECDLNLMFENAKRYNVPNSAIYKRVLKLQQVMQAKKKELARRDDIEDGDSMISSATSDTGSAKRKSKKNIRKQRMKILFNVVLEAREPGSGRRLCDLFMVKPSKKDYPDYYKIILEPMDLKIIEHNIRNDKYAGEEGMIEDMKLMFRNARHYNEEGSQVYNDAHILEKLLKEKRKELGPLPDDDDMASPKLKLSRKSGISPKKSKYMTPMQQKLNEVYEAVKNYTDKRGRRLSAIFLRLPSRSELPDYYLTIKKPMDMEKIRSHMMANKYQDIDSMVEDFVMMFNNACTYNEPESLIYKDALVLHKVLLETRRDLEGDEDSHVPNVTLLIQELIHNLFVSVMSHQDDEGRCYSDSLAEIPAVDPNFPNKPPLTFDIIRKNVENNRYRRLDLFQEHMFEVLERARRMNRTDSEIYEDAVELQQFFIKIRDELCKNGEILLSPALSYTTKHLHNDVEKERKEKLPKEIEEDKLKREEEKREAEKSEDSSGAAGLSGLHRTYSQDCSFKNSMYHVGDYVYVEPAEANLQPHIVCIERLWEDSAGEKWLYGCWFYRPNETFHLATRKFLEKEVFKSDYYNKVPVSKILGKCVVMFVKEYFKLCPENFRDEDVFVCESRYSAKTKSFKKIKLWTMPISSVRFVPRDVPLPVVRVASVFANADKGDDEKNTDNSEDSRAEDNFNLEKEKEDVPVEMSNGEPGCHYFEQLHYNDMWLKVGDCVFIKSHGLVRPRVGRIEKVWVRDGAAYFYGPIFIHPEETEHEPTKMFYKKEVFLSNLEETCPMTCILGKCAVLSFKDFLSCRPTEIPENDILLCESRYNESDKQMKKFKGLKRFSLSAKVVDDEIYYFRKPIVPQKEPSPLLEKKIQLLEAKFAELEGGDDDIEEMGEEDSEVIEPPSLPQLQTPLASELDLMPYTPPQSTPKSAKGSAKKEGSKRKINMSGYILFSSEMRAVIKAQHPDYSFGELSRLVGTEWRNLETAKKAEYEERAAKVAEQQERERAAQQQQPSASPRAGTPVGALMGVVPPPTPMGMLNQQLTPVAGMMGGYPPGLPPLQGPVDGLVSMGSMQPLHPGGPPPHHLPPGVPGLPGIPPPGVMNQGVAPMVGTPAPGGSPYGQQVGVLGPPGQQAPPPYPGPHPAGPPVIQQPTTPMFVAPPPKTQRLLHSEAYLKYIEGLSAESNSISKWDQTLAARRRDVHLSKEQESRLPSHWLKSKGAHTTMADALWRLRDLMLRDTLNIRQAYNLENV
Bromodomain-containing protein 9 (Homo sapiens), sequence (Q9H8M2 whole entry): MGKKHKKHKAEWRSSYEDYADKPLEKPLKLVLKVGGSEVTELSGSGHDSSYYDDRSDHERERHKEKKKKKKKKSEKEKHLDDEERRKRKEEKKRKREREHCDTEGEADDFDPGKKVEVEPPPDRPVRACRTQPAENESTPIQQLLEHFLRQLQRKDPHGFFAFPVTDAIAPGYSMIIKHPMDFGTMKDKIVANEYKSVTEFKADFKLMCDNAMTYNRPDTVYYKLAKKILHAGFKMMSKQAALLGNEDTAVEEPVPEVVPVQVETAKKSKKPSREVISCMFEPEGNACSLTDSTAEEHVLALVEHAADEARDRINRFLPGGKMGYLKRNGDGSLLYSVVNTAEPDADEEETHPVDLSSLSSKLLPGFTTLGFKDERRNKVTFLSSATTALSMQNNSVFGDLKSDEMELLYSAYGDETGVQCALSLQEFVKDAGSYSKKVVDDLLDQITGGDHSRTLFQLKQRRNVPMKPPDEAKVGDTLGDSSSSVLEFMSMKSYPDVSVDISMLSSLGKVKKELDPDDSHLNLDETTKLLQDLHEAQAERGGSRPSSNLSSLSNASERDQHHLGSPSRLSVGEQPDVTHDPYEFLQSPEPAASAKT

Take `Cc1nnc2c(NC3CCN(CC(C)(C)F)CC3)cc(C(=O)N3[C@@H]4c5ccccc5C[C@H]3C(=O)N[C@@H]4C(C)C)nn12`: the IC50 in assay [1] was 20000 nM; in assay [2], 126 nM. Further, the Activity was found to be 0% in assay [3]; 75% in assay [4]; 47% in assay [5]; 31% in [6]; 64% in [7]; 48% in assay [8]. In addition, the Activity in assay [9] was determined as 71%; in assay [10], 41%; at Protein polybromo-1 [11], 80%; at Protein polybromo-1 [12] it was 52%; in [13] it was 44%; in assay [14], 82%. For the same compound, the Activity in assay [15] is 96%. The Kd is 7.94 nM in [16], 200 nM in assay [17], greater than 316 nM in [18] and 158 nM in assay [19]. For the same compound, in the assay on SK-BR-3, the result was inactive.
